Test [1] relates to prostate cancer PC3 cells. The test can be described thus: NCI 60 cell cancer screen, multiple dose study (dose-response) in PC3 cells. It is filed as cell-based. Conditions: FIG. 2. The protocol:
FIG. 2 provides data from a multiple dose study (dose-response) performed in prostate cancer PC3 cells.
(§1) A multiple dose study (dose-response) was then performed using Compound 8 across multiple cancer cell lines. […] A multiple dose study (dose-response) was then performed in PC3 cells using Compound 9. […] (See FIG. 2) The data was generated according to the National Cancer Institute (NCI) 60 cell cancer screen.

A further test relates to cancer cell lines. The test can be described thus: National Cancer Institute (NCI) 60 cell cancer screen, growth inhibition. It is filed as cell-based. To be noted: multiple dose study (dose-response); leukemia, non-small cell, colon, CNS, melanoma, ovarian, renal, prostate, breast cancer cell lines (FIGS. 3-11). How it is done:
as §1

Test [2] addresses dopamine transporter (DAT) (Homo sapiens, UniProt Q01959). The test can be described thus: CNS receptor testing, affinity at dopamine transporter. It is filed as binding. To be noted: for affinity and selectivity for the dopamine transporter (DAT): result in words. The protocol: The compounds were tested for affinity at various central nervous system receptors.

Molecules are shown by their SMILES.

dopamine transporter (DAT), sequence (Q01959 whole entry, species assumed): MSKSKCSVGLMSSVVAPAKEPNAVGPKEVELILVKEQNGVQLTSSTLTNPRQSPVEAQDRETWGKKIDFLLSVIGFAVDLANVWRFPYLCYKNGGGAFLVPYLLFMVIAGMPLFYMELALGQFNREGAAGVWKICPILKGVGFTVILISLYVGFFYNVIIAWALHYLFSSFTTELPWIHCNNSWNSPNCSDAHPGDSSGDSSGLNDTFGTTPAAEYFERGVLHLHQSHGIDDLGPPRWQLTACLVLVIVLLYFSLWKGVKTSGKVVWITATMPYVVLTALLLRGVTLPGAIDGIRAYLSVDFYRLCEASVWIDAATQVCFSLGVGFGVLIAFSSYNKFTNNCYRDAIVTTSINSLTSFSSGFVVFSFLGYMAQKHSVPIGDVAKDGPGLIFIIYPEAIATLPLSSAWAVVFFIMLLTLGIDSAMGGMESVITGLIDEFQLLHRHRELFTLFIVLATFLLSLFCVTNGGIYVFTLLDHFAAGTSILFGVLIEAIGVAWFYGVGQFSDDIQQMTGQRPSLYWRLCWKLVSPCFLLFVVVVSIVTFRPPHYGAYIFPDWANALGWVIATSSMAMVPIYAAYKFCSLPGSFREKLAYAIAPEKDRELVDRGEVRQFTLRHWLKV

In the case of `CCCCCc1cc(NC(=O)CC(F)(F)F)c2c(c1)OC(C)(CCC=C(C)C)C=C2` (stereo not drawn) [Compound 9], in test [1], the “growth inhibition of PC3 cells” value is given as “inhibits the growth”.

Turning to `CCCCCc1cc(NC(=O)C(Cl)Cl)c2c(c1)OC(C)(CCC=C(C)C)C=C2` (stereo not drawn) [Compound 8], the “growth inhibition across multiple cancer cell lines” value in the test on cancer cell lines was “provided growth inhibition”.

In general, Ki refers to the equilibrium dissociation constant of an inhibitor or competing ligand from its target. High values mean lower affinity, low ones higher affinity. For `CCCCCc1cc(NC(=O)C(F)(F)Br)c2c(c1)OC(C)(CCC=C(C)C)C=C2` (stereo not drawn) [Compound 10], in test [2], the Ki came out at 85 nM; the “affinity and selectivity for the dopamine transporter (DAT)” value was “good affinity and selectivity”.

In the case of `CCCCCc1cc(NC(=O)CCCC)c2c(c1)OC(C)(CCC=C(C)C)C=C2` (stereo not drawn) [Compound 12], in test [2], the Ki stood at 107 nM; the “affinity and selectivity for the dopamine transporter (DAT)” value is “good affinity and selectivity”.

Source of the values: patent publication US12466801B2, “Cannabichromene derivatives and use thereof” (Remedy Processors LLC, priority 2023, dated 2025).
